Experimental data reported in ChEMBL document CHEMBL5260813, “An overview on the recent developments of 1,2,4-triazine derivatives as anticancer compounds” (Eur J Med Chem, 2017).

Assays:
[1] = molecular target: Cyclin-dependent kinase 2/cyclin E (Homo sapiens, UniProt P24941); assay: Inhibition of CDK2/cyclin E (unknown origin); assay type: protein-complex assay
[2] = molecular target: Cyclin-dependent kinase 2/cyclin E1 (Homo sapiens, UniProt P24941); assay: Inhibition of CDK2/cyclin E1 (unknown origin) expressed in Sf9 cells
[3] = molecular target: T1, Tyrosine-protein kinase JAK3 (Homo sapiens, UniProt P52333); assay: Inhibition of JAK3 (unknown origin)
T1 sequence (P52333 whole entry): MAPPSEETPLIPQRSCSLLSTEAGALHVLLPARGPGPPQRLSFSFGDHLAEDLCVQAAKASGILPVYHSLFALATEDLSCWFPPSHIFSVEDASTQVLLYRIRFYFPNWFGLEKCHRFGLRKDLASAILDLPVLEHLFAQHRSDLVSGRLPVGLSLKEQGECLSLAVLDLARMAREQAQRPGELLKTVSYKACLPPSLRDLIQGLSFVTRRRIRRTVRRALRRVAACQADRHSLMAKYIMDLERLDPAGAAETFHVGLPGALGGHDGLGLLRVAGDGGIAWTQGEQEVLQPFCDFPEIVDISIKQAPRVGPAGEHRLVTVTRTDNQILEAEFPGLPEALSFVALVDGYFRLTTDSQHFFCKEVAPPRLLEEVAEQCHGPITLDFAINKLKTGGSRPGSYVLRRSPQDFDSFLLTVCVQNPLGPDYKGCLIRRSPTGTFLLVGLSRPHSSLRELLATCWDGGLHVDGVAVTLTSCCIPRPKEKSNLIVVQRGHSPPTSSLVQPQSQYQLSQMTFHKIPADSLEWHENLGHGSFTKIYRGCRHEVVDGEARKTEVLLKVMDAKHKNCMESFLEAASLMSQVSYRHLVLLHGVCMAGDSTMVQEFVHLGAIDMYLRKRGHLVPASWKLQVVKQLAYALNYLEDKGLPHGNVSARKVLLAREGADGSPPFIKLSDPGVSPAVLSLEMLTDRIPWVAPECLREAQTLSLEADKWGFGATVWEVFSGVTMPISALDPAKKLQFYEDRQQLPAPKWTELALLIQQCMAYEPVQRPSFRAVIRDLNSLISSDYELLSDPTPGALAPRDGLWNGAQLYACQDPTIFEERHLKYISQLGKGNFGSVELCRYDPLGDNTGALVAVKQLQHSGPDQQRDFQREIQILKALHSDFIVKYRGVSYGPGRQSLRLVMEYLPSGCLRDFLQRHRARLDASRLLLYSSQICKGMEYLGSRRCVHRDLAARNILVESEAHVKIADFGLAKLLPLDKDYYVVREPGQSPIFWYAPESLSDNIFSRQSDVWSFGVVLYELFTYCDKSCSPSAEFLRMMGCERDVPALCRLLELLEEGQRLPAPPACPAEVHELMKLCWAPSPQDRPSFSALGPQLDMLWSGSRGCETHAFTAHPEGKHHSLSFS

[4] = molecular target: Tyrosine-protein kinase JAK2 (Homo sapiens, UniProt O60674); assay: Inhibition of JAK2 (unknown origin)
K562 = assay: Antiproliferative activity against human K562 cells assessed as inhibition of cell growth measured after 72 hrs by fluorescence based assay; assay type: functional; settings: K562, 72 h
MCF7 = assay: Antiproliferative activity against human MCF7 cells assessed as inhibition of cell growth measured after 72 hrs by fluorescence based assay; assay type: functional; settings: MCF7, 72 h
[5] = molecular target: Vascular endothelial growth factor receptor 2 (Homo sapiens, UniProt P35968); assay: Inhibition of VEGFR-2 (unknown origin)
HT-29 [6] = assay: Antiproliferative activity against human HT-29 cells assessed as inhibition of cell growth under hypoxia condition by SRB assay; assay type: functional, cell-based
HT-29 [7] = assay: Antiproliferative activity against human HT-29 cells assessed as inhibition of cell growth under normoxia condition by SRB assay; assay type: functional, cell-based
SCC-7 [8] = assay: Anticlonogenic activity against mouse SCC-7 cells assessed as inhibition of colony formation under hypoxic condition by clonogenic survival assay; assay type: functional
SCC-7 [9] = assay: Anticlonogenic activity against mouse SCC-7 cells assessed as inhibition of colony formation under aerobic condition by clonogenic survival assay; assay type: functional
[10] = molecular target: Tyrosine-protein kinase SYK (Homo sapiens, UniProt P43405); assay: Inhibition of human SYK using 5-Fluo-Ahx-GAPDYENLQELNKK-Amid as substrate in presence of ATP by microfluidic mobility shift assay

Tyrosine-protein kinase JAK2, sequence (O60674 whole entry): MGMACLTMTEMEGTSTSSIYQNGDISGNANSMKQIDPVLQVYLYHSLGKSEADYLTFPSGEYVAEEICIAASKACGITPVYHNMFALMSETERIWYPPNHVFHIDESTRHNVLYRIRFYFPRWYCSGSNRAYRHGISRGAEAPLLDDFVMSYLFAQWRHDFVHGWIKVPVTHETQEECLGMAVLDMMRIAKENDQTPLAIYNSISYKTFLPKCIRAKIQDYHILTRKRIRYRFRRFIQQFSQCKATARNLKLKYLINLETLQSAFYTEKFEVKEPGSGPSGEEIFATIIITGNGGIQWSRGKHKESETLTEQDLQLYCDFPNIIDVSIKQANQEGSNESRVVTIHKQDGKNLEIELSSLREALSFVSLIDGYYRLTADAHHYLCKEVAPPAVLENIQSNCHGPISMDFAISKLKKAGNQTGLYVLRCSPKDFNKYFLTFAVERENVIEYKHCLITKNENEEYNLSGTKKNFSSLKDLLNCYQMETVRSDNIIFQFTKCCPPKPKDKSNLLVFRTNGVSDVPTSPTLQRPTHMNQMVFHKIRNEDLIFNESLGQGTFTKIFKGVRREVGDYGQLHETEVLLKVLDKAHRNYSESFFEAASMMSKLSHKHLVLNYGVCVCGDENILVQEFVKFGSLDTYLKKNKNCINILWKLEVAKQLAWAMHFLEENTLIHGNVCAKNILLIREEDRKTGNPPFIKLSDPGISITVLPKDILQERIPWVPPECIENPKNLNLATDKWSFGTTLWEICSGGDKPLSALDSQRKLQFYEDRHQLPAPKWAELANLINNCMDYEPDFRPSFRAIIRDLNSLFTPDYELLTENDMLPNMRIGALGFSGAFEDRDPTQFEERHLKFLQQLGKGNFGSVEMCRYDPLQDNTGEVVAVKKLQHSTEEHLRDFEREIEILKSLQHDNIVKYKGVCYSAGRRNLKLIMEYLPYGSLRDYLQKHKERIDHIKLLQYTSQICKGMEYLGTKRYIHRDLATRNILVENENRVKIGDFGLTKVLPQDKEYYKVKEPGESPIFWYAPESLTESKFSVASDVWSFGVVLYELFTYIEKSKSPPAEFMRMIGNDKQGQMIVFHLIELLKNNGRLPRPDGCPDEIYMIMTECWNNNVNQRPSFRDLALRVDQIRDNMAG
Vascular endothelial growth factor receptor 2, sequence (P35968 whole entry): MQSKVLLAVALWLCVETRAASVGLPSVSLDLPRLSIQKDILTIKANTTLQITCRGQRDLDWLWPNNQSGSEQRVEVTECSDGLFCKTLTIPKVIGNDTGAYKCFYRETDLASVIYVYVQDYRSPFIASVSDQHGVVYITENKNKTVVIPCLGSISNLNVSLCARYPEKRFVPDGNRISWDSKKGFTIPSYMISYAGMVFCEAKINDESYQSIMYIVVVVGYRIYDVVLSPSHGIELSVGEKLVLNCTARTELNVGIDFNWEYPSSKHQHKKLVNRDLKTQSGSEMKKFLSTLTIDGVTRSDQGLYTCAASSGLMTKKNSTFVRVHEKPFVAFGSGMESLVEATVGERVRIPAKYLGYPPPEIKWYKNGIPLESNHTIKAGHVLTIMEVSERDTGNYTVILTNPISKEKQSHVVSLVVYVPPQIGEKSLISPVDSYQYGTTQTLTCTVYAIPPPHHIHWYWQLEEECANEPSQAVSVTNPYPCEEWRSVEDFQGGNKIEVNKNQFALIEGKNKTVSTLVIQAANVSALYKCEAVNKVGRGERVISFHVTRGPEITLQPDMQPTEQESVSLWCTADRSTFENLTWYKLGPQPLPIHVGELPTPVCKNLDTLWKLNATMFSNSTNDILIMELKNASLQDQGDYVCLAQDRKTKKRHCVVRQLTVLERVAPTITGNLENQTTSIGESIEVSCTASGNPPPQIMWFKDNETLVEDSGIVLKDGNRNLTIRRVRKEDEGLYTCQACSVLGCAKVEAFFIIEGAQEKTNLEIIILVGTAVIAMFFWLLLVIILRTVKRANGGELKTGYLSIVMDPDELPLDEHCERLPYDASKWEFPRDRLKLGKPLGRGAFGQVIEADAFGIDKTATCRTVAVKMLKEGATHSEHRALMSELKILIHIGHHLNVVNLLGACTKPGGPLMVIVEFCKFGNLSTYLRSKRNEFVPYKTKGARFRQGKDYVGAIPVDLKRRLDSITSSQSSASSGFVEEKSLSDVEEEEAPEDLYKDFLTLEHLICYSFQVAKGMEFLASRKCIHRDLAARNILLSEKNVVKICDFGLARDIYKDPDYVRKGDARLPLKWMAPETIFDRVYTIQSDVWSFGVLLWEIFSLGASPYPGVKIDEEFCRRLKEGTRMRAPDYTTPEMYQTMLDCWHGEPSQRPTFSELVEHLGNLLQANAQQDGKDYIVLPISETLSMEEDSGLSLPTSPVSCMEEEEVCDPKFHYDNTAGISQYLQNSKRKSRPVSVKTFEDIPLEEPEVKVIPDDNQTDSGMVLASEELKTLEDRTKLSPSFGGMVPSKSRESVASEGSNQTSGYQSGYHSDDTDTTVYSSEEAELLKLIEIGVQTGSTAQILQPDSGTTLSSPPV

**Q.** How did the IC50 [1] turn out when `Nc1ccc(F)cc1C1=NNC(S)NC1=O` (stereo not given) was run?
**A.** The IC50 was 3.8 µM.

**Q.** With `CNc1ccc(F)cc1C1=NNC(SC)NC1=O` (stereo not given) as the compound, how does the IC50 [1] read?
**A.** The IC50 was 5 µM.

**Q.** Which IC50 [2] does the source give for `Oc1ccc(-n2nc(-c3cc(O)c(O)c(O)c3)c3nc(-c4ccccc4)nnc32)cc1` here?
**A.** The IC50 was 14.1 µM.

**Q.** What does the source list for `CC(Nc1cnnc(-c2c[nH]c3ncc(C#N)cc23)n1)C(=O)NCC(C)(C)C` (stereo not given)?
**A.** IC50 [3]: ≤ 0.01 µM; IC50 [4]: ≤ 0.01 µM

**Q.** What does the source list for `O=c1nc(NCCCCCCNc2nc(=O)n(-c3ccccc3)nc2-c2c(O)ccc3ccccc23)c(-c2c(O)ccc3ccccc23)nn1-c1ccccc1`?
**A.** IC50 (K562): 3.5 µM; IC50 (MCF7): 3.5 µM

**Q.** Which results are given for `CC(Nc1cnnc(-c2c[nH]c3ncc(C(N)=O)cc23)n1)C(=O)NCC(C)(C)C` (stereo not given)?
**A.** IC50 [3]: ≤ 0.01 µM; IC50 [4]: ≤ 0.01 µM

**Q.** With `Oc1ccc(-n2nc(-c3cc(O)c(O)c(O)c3)c3nc(-c4ccc(Cl)cc4)nnc32)cc1` as the compound, how does the IC50 [2] read?
**A.** The IC50 was greater than 20 µM.

**Q.** Which results are given for `O=c1nc(Nc2ccccc2)c(-c2ccccc2O)nn1-c1ccccc1`?
**A.** IC50 (K562): 3.5 µM; IC50 (MCF7): 3.5 µM

**Q.** What does the source list for `Nc1nc(=O)n(-c2ccccc2)nc1-c1ccccc1O`?
**A.** IC50 (K562): 3.5 µM; IC50 (MCF7): 3.5 µM

**Q.** For `Cc1ccc(Nc2ncnn3c(C)ccc23)cc1O`, which IC50 [5] is on record?
**A.** Its IC50 is 29.4 µM.

**Q.** Which IC50 [1] does the source give for `Nc1ccc(F)cc1C1=NNC(Nc2ccc(F)cc2)NC1=O` (stereo not given) here?
**A.** Its IC50 is 3.8 µM.

**Q.** How did the IC50 [1] turn out when `Fc1ccc(-c2nnc(-n3c(=S)[nH][nH]c3=S)nc2-c2ccc(F)cc2)cc1` was run?
**A.** Its IC50 is 9.99 µM.

**Q.** How did the IC50 [3] turn out when `COc1cnc2[nH]cc(-c3nncc(NC(C(=O)NCC(C)(C)C)C(C)C)n3)c2c1` (stereo not given) was run?
**A.** The IC50 was no more than 0.01 µM.

**Q.** And the IC50 [4]?
**A.** Its IC50 is no more than 0.01 µM.

**Q.** Which IC50 (K562) does the source give for `NCCCCNc1nc(=O)n(-c2ccccc2)nc1-c1ccccc1O` here?
**A.** The IC50 was 3.5 µM.

**Q.** And the IC50 (MCF7)?
**A.** Its IC50 is 3.5 µM.

**Q.** For `NC(=O)NNc1nc(=O)n(-c2ccccc2)nc1-c1ccccc1O`, which IC50 (K562) is on record?
**A.** Its IC50 is 3.5 µM.

**Q.** And the IC50 (MCF7)?
**A.** The IC50 was 3.5 µM.

**Q.** With `CC(C)(C)CNC(=O)C(C)(C)Nc1cnnc(-c2c[nH]c3ncc(C(N)=O)cc23)n1` as the compound, how does the IC50 [3] read?
**A.** Its IC50 is no more than 0.01 µM.

**Q.** And the IC50 [4]?
**A.** The IC50 was no more than 0.01 µM.

**Q.** `Oc1ccccc1-n1nc(-c2cc(O)c(O)c(O)c2)c2nc(-c3ccc(Cl)cc3)nnc21` was tested. Which IC50 [2] did it give?
**A.** Its IC50 is greater than 20 µM.

**Q.** How did the IC50 (HT-29 [6]) turn out when `CN(CCCNC(=O)c1cccc2cc3ccccc3nc12)CCCNc1n[n+]([O-])c2ccccc2[n+]1[O-]` was run?
**A.** The IC50 was 0.016 µM.

**Q.** What about the IC50 (HT-29 [7]) of the same compound?
**A.** The IC50 was 0.6 µM.

**Q.** What about the C10 (SCC-7 [8]) of the same compound?
**A.** The C10 was 0.18 µM.

**Q.** What about the C10 (SCC-7 [9]) of the same compound?
**A.** Its C10 is 6.4 µM.

**Q.** With `CSC1NN=C(c2cc(F)ccc2NC(=O)c2ccc(F)cc2)C(=O)N1` (stereo not given) as the compound, how does the IC50 [1] read?
**A.** Its IC50 is 3.8 µM.

**Q.** With `CN(CCCNC(=O)c1cccc2nc3ccccc3nc12)CCCNc1n[n+]([O-])c2ccccc2[n+]1[O-]` as the compound, how does the IC50 (HT-29 [6]) read?
**A.** Its IC50 is 0.016 µM.

**Q.** What about the IC50 (HT-29 [7]) of the same compound?
**A.** The IC50 was 0.6 µM.

**Q.** What about the C10 (SCC-7 [8]) of the same compound?
**A.** The C10 was 0.18 µM.

**Q.** And the C10 (SCC-7 [9])?
**A.** Its C10 is 6.4 µM.

**Q.** Which results are given for `NCCNc1nc(=O)n(-c2ccccc2)nc1-c1ccccc1O`?
**A.** IC50 (K562): 3.5 µM; IC50 (MCF7): 3.5 µM

**Q.** How did the IC50 (K562) turn out when `O=c1nc(NCCCCCN(CCCNc2nc(=O)n(-c3ccccc3)nc2-c2ccccc2O)c2nc(=O)n(-c3ccccc3)nc2-c2ccccc2O)c(-c2ccccc2O)nn1-c1ccccc1` was run?
**A.** The IC50 was 3.5 µM.

**Q.** What about the IC50 (MCF7) of the same compound?
**A.** Its IC50 is 3.5 µM.

**Q.** With `NC(=O)c1nnc(N[C@@H]2CCCC[C@@H]2N)nc1Nc1cccc2[nH]ccc12` as the compound, how does the IC50 [10] read?
**A.** Its IC50 is 0.0008 µM.

**Q.** Which IC50 [3] does the source give for `CC(C)C(Nc1cnnc(-c2c[nH]c3ncc(C(N)=O)cc23)n1)C(=O)NCC(C)(C)C` (stereo not given) here?
**A.** The IC50 was no more than 0.01 µM.

**Q.** What about the IC50 [4] of the same compound?
**A.** The IC50 was no more than 0.01 µM.

**Q.** With `NNC(=S)Nc1nnc(-c2ccc(F)cc2)c(-c2ccc(F)cc2)n1` as the compound, how does the IC50 [1] read?
**A.** Its IC50 is 11.2 µM.

**Q.** For `Cc1cccc2cc3cccc(C(=O)NCCCN(C)CCCNc4n[n+]([O-])c5ccccc5[n+]4[O-])c3nc12`, which IC50 (HT-29 [6]) is on record?
**A.** The IC50 was 0.016 µM.

**Q.** What about the IC50 (HT-29 [7]) of the same compound?
**A.** Its IC50 is 0.6 µM.

**Q.** And the C10 (SCC-7 [8])?
**A.** Its C10 is 0.18 µM.

**Q.** What about the C10 (SCC-7 [9]) of the same compound?
**A.** The C10 was 6.4 µM.

**Q.** `CC(C)(C)CNC(=O)C(C)(C)Nc1cnnc(-c2c[nH]c3ncc(C#N)cc23)n1` was tested. Which IC50 [3] did it give?
**A.** The IC50 was no more than 0.01 µM.

**Q.** And the IC50 [4]?
**A.** Its IC50 is no more than 0.01 µM.

**Q.** Which IC50 [2] does the source give for `Oc1cc(-c2nn(-c3ccc(Cl)cc3)c3nnc(-c4ccc(Cl)cc4)nc23)cc(O)c1O` here?
**A.** Its IC50 is greater than 20 µM.
